Read-outs that look alike come from different tables or passages of the source.
Legend:
Type in all cases: in vivo, human
[1] = Phase 2a acute VVC study, safety; conditions: administered for 3 days
Method: (§1) Oteseconazole has previously been evaluated in a Phase 2a multi-center, randomized, double-blind, active-controlled, parallel-group, dose-ranging study in patients with moderate-to-severe acute VVC. A total of 55 subjects with moderate-to-severe acute VVC (severity score ≥6 and a positive fungal KOH test) participated in the study across 4 dose groups: 1) oteseconazole 300 mg qd for 3 days: 2) 600 mg qd for 3 days: 3) 600 mg bid for 3 days; or 4) a single dose of fluconazole 150 mg followed by matching placebo. […] No safety signals of clinical concern were observed from the safety assessments.

Study CL-017 plasma PK = conditions: for Tmax: Median
Method: Oteseconazole mean (SD) plasma concentration during the intense PK sampling period on Day 1 peaked at 4 hours postdose (1425.8 [672.05] μg/L) and decreased slightly by 8 hours postdose (1301.06 [782.76] μg/L). On Day 2, mean (SD) oteseconazole plasma concentrations were 697.7 (264.40) μg/L at predose, then increased to 1895.0 (640.00) μg/L at 4 hours postdose, and decreased to 1555.6 (392.68) μg/L by 8 hours postdose (FIG. 6).
Over the period of Day 14 to Week 50, oteseconazole plasma concentrations were measured at Day 14, Week 14 (end of dosing), and Week 50 (end of follow-up period). Oteseconazole mean (SD) plasma concentration increased from 1396.9 (709.00) μg/L at Day 14 to 2679.3 (1318.94) μg/L at Week 14 before decreasing to 873.4 (534.49) μg/L at Week 50 (FIG. 7).
Median Tmax occurred at 4.00 hours on Day 2; however, Tmax occurred in a narrower range (2.00 to 8.00 hours) compared with that observed on Day 1. The AUC0-8 was 7570 h*μg/L and 11700 h*μg/L, for Day 1 and Day 2, respectively (Table 17).

Candida species = assay: Phase 2a dose-ranging study in moderate-to-severe acute VVC, effective therapeutic cure; conditions: Per Protocol population
Method: as §1
The efficacy of oteseconazole in the treatment of moderate-to-severe acute VVC was evaluated at the TOC visit in the Per Protocol population at the Day 28 test of cure (TOC) visit was, 87%, 86%, 86%, and 75% of subjects receiving the low, mid-, or high-dose oteseconazole or comparator arm of fluconazole, respectively, achieved an effective therapeutic cure (defined as having a total clinical signs and symptoms severity score of ≤1 and a negative culture for Candida species) in the Per Protocol population

recurrent VVC episode = assay: Study CL-006 culture-verified recurrent VVC episodes; conditions: 150 mg, 3 months dose group (150 mg QD 7 days, then 150 mg QW 11 weeks)
From the text: The dosing regimen yielded oteseconazole plasma concentrations that provided marked efficacy across all dose groups, with no differences in the extent of efficacy noted.

[2] = Study CL-003 in subjects with tinea pedis, plasma PK; conditions: for AUC(0-t): read-out: AUC0−8
Method: Oteseconazole was slowly absorbed, with median time to peak plasma concentration values that ranged from 5.0 to 6.0 hours after dosing on Days 1 and 14 for all treatments. […] The Cmax values on Day 1 were similar between the mid- and high-dose treatments, since the first dose on that day was 600 mg for each treatment.

[3] = human, plasma, High Dose 1200 mg/300 mg, Day 1
[4] = human, plasma, High Dose 1200 mg/300 mg, Day 14
[5] = human, plasma, Low Dose 200 mg/50 mg, Day 1
[6] = human, plasma, Low Dose 200 mg/50 mg, Day 14
[7] = human, plasma, Mid Dose 600 mg/150 mg, Day 1
[8] = human, plasma, Mid Dose 600 mg/150 mg, Day 14

Clast (Study CL-017 plasma PK; 3 × 150 mg (450 mg), Day 2, Geometric Mean): 1510 µg/L
AUC(0-t) (Study CL-017 plasma PK; human, plasma, oral, 450 mg, 3 × 150 mg (450 mg), Day 2, Geometric Mean, read-out: AUC0-8): 11700 ng·h/mL
concentration at 4 h (Study CL-017 plasma PK; human, plasma, oral, 450 mg, Day 2, 4 hours postdose, read-out: mean (SD) plasma concentration): 1900 ng/mL
concentration at 8 h (Study CL-017 plasma PK; human, plasma, oral, 450 mg, Day 2, 8 hours postdose, read-out: mean (SD) plasma concentration): 1560 ng/mL
AUC(0-t) (Study CL-017 plasma PK; human, plasma, oral, 450 mg, Day 2, as given in text, read-out: AUC0-8): 11700 ng·h/mL
AUC(0-t) (Study CL-017 plasma PK; human, plasma, oral, 600 mg, 600 mg dose on Day 1, as given in text, read-out: AUC0-24): 20600 ng·h/mL
AUC(0-t) (Study CL-017 plasma PK; human, plasma, oral, 600 mg, 4 × 150 mg (600 mg), Day 1, Geometric Mean, N 8, read-out: AUC0-24): 20600 ng·h/mL
AUC(0-t) (Study CL-017 plasma PK; human, plasma, oral, 600 mg, 4 × 150 mg (600 mg), Day 1, Geometric Mean, read-out: AUC0-8): 7570 ng·h/mL
concentration at 24 h (Study CL-017 plasma PK; human, plasma, oral, 600 mg, 4 × 150 mg (600 mg), Day 1, Geometric Mean, read-out: Clast): 651 ng/mL
concentration at 24 h (Study CL-017 plasma PK; human, plasma, oral, 600 mg, 24 hours after 600 mg Day 1 dose (predose Day 2), read-out: plasma concentrations, range across subjects): 354 to 1150 ng/mL
concentration at 4 h (Study CL-017 plasma PK; human, plasma, oral, 600 mg, Day 1, 4 hours postdose, read-out: mean (SD) plasma concentration): 1430 ng/mL
concentration at 8 h (Study CL-017 plasma PK; human, plasma, oral, 600 mg, Day 1, 8 hours postdose, read-out: mean (SD) plasma concentration): 1300 ng/mL
AUC(0-t) (Study CL-017 plasma PK; human, plasma, oral, 600 mg, Day 1, as given in text, read-out: AUC0-8): 7570 ng·h/mL
concentration at 24 h (Study CL-017 plasma PK; human, plasma, oral, 600 mg, Day 2, predose, read-out: mean (SD) plasma concentration): 698 ng/mL
concentration at 14 day (Study CL-017 plasma PK; human, plasma, oral, Day 14, read-out: mean (SD) plasma concentration): 1400 ng/mL
concentration at 14 week (Study CL-017 plasma PK; human, plasma, oral, Week 14 (end of dosing), read-out: mean (SD) plasma concentration): 2680 ng/mL
concentration at 50 week (Study CL-017 plasma PK; human, plasma, oral, Week 50 (end of follow-up period), read-out: mean (SD) plasma concentration): 873 ng/mL
Cmax (Study CL-017 plasma PK; human, plasma, oral, 3 × 150 mg (450 mg), Day 2, Geometric Mean): 2010 ng/mL
Tmax (Study CL-017 plasma PK; human, plasma, oral, 3 × 150 mg (450 mg), Day 2): 4 h
Cmax (Study CL-017 plasma PK; human, plasma, oral, 4 × 150 mg (600 mg), Day 1, Geometric Mean): 1620 ng/mL
Tmax (Study CL-017 plasma PK; human, plasma, oral, 4 × 150 mg (600 mg), Day 1): 4.01 h
increase in Cmax, high-dose versus mid-dose treatment ([2]; Day 14, 2-fold dose difference): 15%
increase in concentration (Cmax), mid versus low dose ([2]; Days 1 and 14, 3-fold increase in dose): 2 fold
Cmax achieved as share of target ([2]; high-dose group): about 25%
Cmax [2, 3]: 757 ng/mL
Tmax [2, 3]: 5 h
AUC(0-t) [2, 3]: 3540 ng·h/mL
Cmax [2, 4]: 2520 ng/mL
Tmax [2, 4]: 5.02 h
AUC(0-t) [2, 4]: 17600 ng·h/mL
Cmax [2, 5]: 366 ng/mL
Tmax [2, 5]: 6 h
AUC(0-t) [2, 5]: 1680 ng·h/mL
Cmax [2, 6]: 1090 ng/mL
Tmax [2, 6]: 5 h
AUC(0-t) [2, 6]: 7950 ng·h/mL
Cmax [2, 7]: 679 ng/mL
Tmax [2, 7]: 6 h
AUC(0-t) [2, 7]: 3320 ng·h/mL
Cmax [2, 8]: 2180 ng/mL
Tmax [2, 8]: 5 h
AUC(0-t) [2, 8]: 16100 ng·h/mL
half-life ([2]; human, plasma, blood sampling for 168 days (4032 hours), read-out: terminal phase half-life, range of median values): 86.7 to 172 days
Cmax achieved as share of target ([2]; mid-dose group): about 50%
Compound: O[C@@](Cn1cnnn1)(c1ccc(F)cc1F)C(F)(F)c1ccc(-c2ccc(OCC(F)(F)F)cc2)cn1 [Oteseconazole, oteseconazole]
serious adverse events [1]: no serious adverse events
safety and tolerability ([1]; 300 mg qd to 600 mg bid): safe and well tolerated
subjects achieving effective therapeutic cure at Day 28 TOC visit (Candida species; high dose, oteseconazole 600 mg bid for 3 days): 86%
subjects achieving effective therapeutic cure at Day 28 TOC visit (Candida species; low dose, oteseconazole 300 mg qd for 3 days): 87%
subjects achieving effective therapeutic cure at Day 28 TOC visit (Candida species; mid dose, oteseconazole 600 mg qd for 3 days): 86%
subjects with a culture-verified recurrent VVC episode by Week 48 (recurrent VVC episode): 4.8%

Source: US20240398773A1, “COMPOSITIONS COMPRISING OTESECONAZOLE” (Mycovia Pharmaceuticals, Inc., priority 2021, published 2024)
